# Results from PMC9126795 (eBioMedicine, 2022).
# Like-named read-outs stand apart in the source and are kept apart here.
# System: patients with HCV and HBV liver cirrhosis
# Assay type: in vivo, human
# [1] = Phase 1 140 mg/m^2/4h (n = 3), Grade 1-2
# [2] = Phase 1 140 mg/m^2/4h (n = 3), Grade 3
# [3] = Phase 1 280 mg/m^2/4h (n = 6), Grade 1-2
# [4] = Phase 1 280 mg/m^2/4h (n = 6), Grade 3
# [5] = Phase 1 380 mg/m^2/4h (n = 6), Grade 1-2
# [6] = Phase 1 380 mg/m^2/4h (n = 6), Grade 3
# [7] = Phase 2a 280 mg/m^2/4h, Phase 1/ 2a (n = 3), Grade 1-2
# [8] = Phase 2a 280 mg/m^2/4h, Phase 1/ 2a (n = 3), Grade 3
# [9] = Phase 2a 280 mg/m^2/4h, Phase 2a only (n = 12), Grade 1-2
# [10] = Phase 2a 280 mg/m^2/4h, Phase 2a only (n = 12), Grade 3
substance,measurement,setting,value
PRI-724,Liver dysfunction at the recommended dose,"Level 2, 280 mg/m^2/4 h",minor and transient
same,AE: Anaemia,[1],0
same,AE: Ascites,[1],0
same,AE: Decreased appetite,[1],0
same,AE: Diarrhea,[1],0
same,AE: Dyspepsia,[1],0
same,AE: Erythema,[1],0
same,AE: Headache,[1],0
same,AE: Hepatic function abnormal,[1],1 (33%)
same,AE: Hypertension,[1],0
same,AE: Hyperuricaemia,[1],0
same,AE: Insomnia,[1],0
same,AE: Muscle spasms,[1],0
same,AE: Nasopharyngitis,[1],1 (33%)
same,AE: Nausea,[1],0
same,AE: Pruritus,[1],0
same,AE: Puncture site pain,[1],0
same,AE: Pyrexia,[1],0
same,AE: Spontaneous bacterial peritonitis,[1],0
same,AE: Viral infection,[1],0
same,AE: Vomiting,[1],0
same,Laboratory abnormality: Alanine aminotransferase increased,[1],0
same,Laboratory abnormality: Aspartate aminotransferase increased,[1],0
same,Laboratory abnormality: Blood creatine phosphokinase increased,[1],0
same,Laboratory abnormality: Blood creatinine increased,[1],0
same,Laboratory abnormality: C-reactive protein increased,[1],0
same,SAE: Anaemia,[1],0
same,SAE: Hepatic function abnormal,[1],0
same,SAE: Spontaneous bacterial peritonitis,[1],0
same,SAE: Viral infection,[1],0
same,AE: Anaemia,[2],0
same,AE: Ascites,[2],0
same,AE: Decreased appetite,[2],0
same,AE: Diarrhea,[2],0
same,AE: Dyspepsia,[2],0
same,AE: Erythema,[2],0
same,AE: Headache,[2],0
same,AE: Hepatic function abnormal,[2],0
same,AE: Hypertension,[2],0
same,AE: Hyperuricaemia,[2],0
same,AE: Insomnia,[2],0
same,AE: Muscle spasms,[2],0
same,AE: Nasopharyngitis,[2],0
same,AE: Nausea,[2],0
same,AE: Pruritus,[2],0
same,AE: Puncture site pain,[2],0
same,AE: Pyrexia,[2],0
same,AE: Spontaneous bacterial peritonitis,[2],0
same,AE: Viral infection,[2],0
same,AE: Vomiting,[2],0
same,Laboratory abnormality: Alanine aminotransferase increased,[2],0
same,Laboratory abnormality: Aspartate aminotransferase increased,[2],0
same,Laboratory abnormality: Blood creatine phosphokinase increased,[2],0
same,Laboratory abnormality: Blood creatinine increased,[2],0
same,Laboratory abnormality: C-reactive protein increased,[2],0
same,SAE: Anaemia,[2],0
same,SAE: Hepatic function abnormal,[2],0
same,SAE: Spontaneous bacterial peritonitis,[2],0
same,SAE: Viral infection,[2],0
same,AE: Anaemia,[3],0
same,AE: Ascites,[3],1 (17%)
same,AE: Decreased appetite,[3],2 (33%)
same,AE: Diarrhea,[3],1 (17%)
same,AE: Dyspepsia,[3],1 (17%)
same,AE: Erythema,[3],0
same,AE: Headache,[3],1 (17%)
same,AE: Hepatic function abnormal,[3],1 (17%)
same,AE: Hypertension,[3],1 (17%)
same,AE: Hyperuricaemia,[3],0
same,AE: Insomnia,[3],1 (17%)
same,AE: Muscle spasms,[3],2 (33%)
same,AE: Nasopharyngitis,[3],1 (17%)
same,AE: Nausea,[3],2 (33%)
same,AE: Pruritus,[3],1 (17%)
same,AE: Puncture site pain,[3],1 (17%)
same,AE: Pyrexia,[3],0
same,AE: Spontaneous bacterial peritonitis,[3],0
same,AE: Viral infection,[3],0
same,AE: Vomiting,[3],2 (33%)
same,Laboratory abnormality: Alanine aminotransferase increased,[3],0
same,Laboratory abnormality: Aspartate aminotransferase increased,[3],0
same,Laboratory abnormality: Blood creatine phosphokinase increased,[3],0
same,Laboratory abnormality: Blood creatinine increased,[3],0
same,Laboratory abnormality: C-reactive protein increased,[3],0
same,SAE: Anaemia,[3],0
same,SAE: Hepatic function abnormal,[3],0
same,SAE: Spontaneous bacterial peritonitis,[3],0
same,SAE: Viral infection,[3],0
same,AE: Anaemia,[4],0
same,AE: Ascites,[4],0
same,AE: Decreased appetite,[4],0
same,AE: Diarrhea,[4],1 (17%)
same,AE: Dyspepsia,[4],0
same,AE: Erythema,[4],0
same,AE: Headache,[4],0
same,AE: Hepatic function abnormal,[4],0
same,AE: Hypertension,[4],0
same,AE: Hyperuricaemia,[4],0
same,AE: Insomnia,[4],0
same,AE: Muscle spasms,[4],0
same,AE: Nasopharyngitis,[4],0
same,AE: Nausea,[4],0
same,AE: Pruritus,[4],0
same,AE: Puncture site pain,[4],0
same,AE: Pyrexia,[4],0
same,AE: Spontaneous bacterial peritonitis,[4],0
same,AE: Viral infection,[4],0
same,AE: Vomiting,[4],0
same,Laboratory abnormality: Alanine aminotransferase increased,[4],1 (17%)
same,Laboratory abnormality: Aspartate aminotransferase increased,[4],1 (17%)
same,Laboratory abnormality: Blood creatine phosphokinase increased,[4],0
same,Laboratory abnormality: Blood creatinine increased,[4],0
same,Laboratory abnormality: C-reactive protein increased,[4],0
same,SAE: Anaemia,[4],0
same,SAE: Hepatic function abnormal,[4],0
same,SAE: Spontaneous bacterial peritonitis,[4],0
same,SAE: Viral infection,[4],0
same,AE: Anaemia,[5],0
same,AE: Ascites,[5],1 (17%)
same,AE: Decreased appetite,[5],1 (17%)
same,AE: Diarrhea,[5],2 (33%)
same,AE: Dyspepsia,[5],0
same,AE: Erythema,[5],0
same,AE: Headache,[5],1 (17%)
same,AE: Hepatic function abnormal,[5],0
same,AE: Hypertension,[5],0
same,AE: Hyperuricaemia,[5],0
same,AE: Insomnia,[5],1 (17%)
same,AE: Muscle spasms,[5],0
same,AE: Nasopharyngitis,[5],0
same,AE: Nausea,[5],2 (33%)
same,AE: Pruritus,[5],0
same,AE: Puncture site pain,[5],0
same,AE: Pyrexia,[5],2 (33%)
same,AE: Spontaneous bacterial peritonitis,[5],0
same,AE: Viral infection,[5],0
same,AE: Vomiting,[5],1 (17%)
same,Laboratory abnormality: Alanine aminotransferase increased,[5],0
same,Laboratory abnormality: Aspartate aminotransferase increased,[5],1 (17%)
same,Laboratory abnormality: Blood creatine phosphokinase increased,[5],1 (17%)
same,Laboratory abnormality: Blood creatinine increased,[5],0
same,Laboratory abnormality: C-reactive protein increased,[5],1 (17%)
same,SAE: Anaemia,[5],0
same,SAE: Hepatic function abnormal,[5],0
same,SAE: Spontaneous bacterial peritonitis,[5],0
same,SAE: Viral infection,[5],0
same,AE: Anaemia,[6],0
same,AE: Ascites,[6],0
same,AE: Decreased appetite,[6],0
same,AE: Diarrhea,[6],0
same,AE: Dyspepsia,[6],0
same,AE: Erythema,[6],0
same,AE: Headache,[6],0
same,AE: Hepatic function abnormal,[6],1 (17%)
same,AE: Hypertension,[6],0
same,AE: Hyperuricaemia,[6],0
same,AE: Insomnia,[6],0
same,AE: Muscle spasms,[6],0
same,AE: Nasopharyngitis,[6],0
same,AE: Nausea,[6],0
same,AE: Pruritus,[6],0
same,AE: Puncture site pain,[6],0
same,AE: Pyrexia,[6],0
same,AE: Spontaneous bacterial peritonitis,[6],0
same,AE: Viral infection,[6],1 (17%)
same,AE: Vomiting,[6],0
same,Laboratory abnormality: Alanine aminotransferase increased,[6],0
same,Laboratory abnormality: Aspartate aminotransferase increased,[6],0
same,Laboratory abnormality: Blood creatine phosphokinase increased,[6],0
same,Laboratory abnormality: Blood creatinine increased,[6],0
same,Laboratory abnormality: C-reactive protein increased,[6],0
same,SAE: Anaemia,[6],0
same,SAE: Hepatic function abnormal,[6],1 (17%)
same,SAE: Spontaneous bacterial peritonitis,[6],0
same,SAE: Viral infection,[6],1 (17%)
same,Serious adverse events (SAEs) observed,"Phase 1/2a, 27 patients",four SAEs among three (one from phase 1 and two from phase 2a) of the 27 patients
same,AE: Anaemia,[7],0
same,AE: Ascites,[7],0
same,AE: Decreased appetite,[7],1 (33%)
same,AE: Diarrhea,[7],1 (33%)
same,AE: Dyspepsia,[7],0
same,AE: Erythema,[7],0
same,AE: Headache,[7],0
same,AE: Hepatic function abnormal,[7],0
same,AE: Hypertension,[7],1 (33%)
same,AE: Hyperuricaemia,[7],0
same,AE: Insomnia,[7],1 (33%)
same,AE: Muscle spasms,[7],0
same,AE: Nasopharyngitis,[7],0
same,AE: Nausea,[7],1 (33%)
same,AE: Pruritus,[7],0
same,AE: Puncture site pain,[7],1 (33%)
same,AE: Pyrexia,[7],0
same,AE: Spontaneous bacterial peritonitis,[7],0
same,AE: Viral infection,[7],0
same,AE: Vomiting,[7],1 (33%)
same,Laboratory abnormality: Alanine aminotransferase increased,[7],0
same,Laboratory abnormality: Aspartate aminotransferase increased,[7],0
same,Laboratory abnormality: Blood creatine phosphokinase increased,[7],0
same,Laboratory abnormality: Blood creatinine increased,[7],0
same,Laboratory abnormality: C-reactive protein increased,[7],0
same,SAE: Anaemia,[7],0
same,SAE: Hepatic function abnormal,[7],0
same,SAE: Spontaneous bacterial peritonitis,[7],0
same,SAE: Viral infection,[7],0
same,AE: Anaemia,[8],0
same,AE: Ascites,[8],0
same,AE: Decreased appetite,[8],0
same,AE: Diarrhea,[8],0
same,AE: Dyspepsia,[8],0
same,AE: Erythema,[8],0
same,AE: Headache,[8],0
same,AE: Hepatic function abnormal,[8],0
same,AE: Hypertension,[8],0
same,AE: Hyperuricaemia,[8],0
same,AE: Insomnia,[8],0
same,AE: Muscle spasms,[8],0
same,AE: Nasopharyngitis,[8],0
same,AE: Nausea,[8],0
same,AE: Pruritus,[8],0
same,AE: Puncture site pain,[8],0
same,AE: Pyrexia,[8],0
same,AE: Spontaneous bacterial peritonitis,[8],0
same,AE: Viral infection,[8],0
same,AE: Vomiting,[8],0
same,Laboratory abnormality: Alanine aminotransferase increased,[8],0
same,Laboratory abnormality: Aspartate aminotransferase increased,[8],0
same,Laboratory abnormality: Blood creatine phosphokinase increased,[8],0
same,Laboratory abnormality: Blood creatinine increased,[8],0
same,Laboratory abnormality: C-reactive protein increased,[8],0
same,SAE: Anaemia,[8],0
same,SAE: Hepatic function abnormal,[8],0
same,SAE: Spontaneous bacterial peritonitis,[8],0
same,SAE: Viral infection,[8],0
same,AE: Anaemia,[9],0
same,AE: Ascites,[9],0
same,AE: Decreased appetite,[9],3 (25%)
same,AE: Diarrhea,[9],2 (17%)
same,AE: Dyspepsia,[9],0
same,AE: Erythema,[9],2 (17%)
same,AE: Headache,[9],1 (8%)
same,AE: Hepatic function abnormal,[9],1 (8%)
same,AE: Hypertension,[9],0
same,AE: Hyperuricaemia,[9],1 (8%)
same,AE: Insomnia,[9],0
same,AE: Muscle spasms,[9],0
same,AE: Nasopharyngitis,[9],1 (8%)
same,AE: Nausea,[9],2 (17%)
same,AE: Pruritus,[9],2 (17%)
same,AE: Puncture site pain,[9],0
same,AE: Pyrexia,[9],0
same,AE: Spontaneous bacterial peritonitis,[9],0
same,AE: Viral infection,[9],0
same,AE: Vomiting,[9],1 (8%)
same,Laboratory abnormality: Alanine aminotransferase increased,[9],2 (17%)
same,Laboratory abnormality: Aspartate aminotransferase increased,[9],3 (25%)
same,Laboratory abnormality: Blood creatine phosphokinase increased,[9],0
same,Laboratory abnormality: Blood creatinine increased,[9],1 (8%)
same,Laboratory abnormality: C-reactive protein increased,[9],0
same,SAE: Anaemia,[9],0
same,SAE: Hepatic function abnormal,[9],0
same,SAE: Spontaneous bacterial peritonitis,[9],0
same,SAE: Viral infection,[9],0
same,AE: Anaemia,[10],2 (17%)
same,AE: Ascites,[10],0
same,AE: Decreased appetite,[10],0
same,AE: Diarrhea,[10],1 (8%)
same,AE: Dyspepsia,[10],0
same,AE: Erythema,[10],0
same,AE: Headache,[10],0
same,AE: Hepatic function abnormal,[10],0
same,AE: Hypertension,[10],1 (8%)
same,AE: Hyperuricaemia,[10],1 (8%)
same,AE: Insomnia,[10],0
same,AE: Muscle spasms,[10],0
same,AE: Nasopharyngitis,[10],0
same,AE: Nausea,[10],0
same,AE: Pruritus,[10],0
same,AE: Puncture site pain,[10],0
same,AE: Pyrexia,[10],0
same,AE: Spontaneous bacterial peritonitis,[10],1 (8%)
same,AE: Viral infection,[10],0
same,AE: Vomiting,[10],0
same,Laboratory abnormality: Alanine aminotransferase increased,[10],1 (8%)
same,Laboratory abnormality: Aspartate aminotransferase increased,[10],0
same,Laboratory abnormality: Blood creatine phosphokinase increased,[10],0
same,Laboratory abnormality: Blood creatinine increased,[10],0
same,Laboratory abnormality: C-reactive protein increased,[10],0
same,SAE: Anaemia,[10],1 (8%)
same,SAE: Hepatic function abnormal,[10],0
same,SAE: Spontaneous bacterial peritonitis,[10],1 (8%)
same,SAE: Viral infection,[10],0
same,"AE liver dysfunction, patients","all patients, 4/27",15%
same,"AE vomiting, patients","all patients, 4/27",15%
same,"AE loss of appetite, patients","all patients, 6/27",22%
same,"AE nausea, patients","all patients, 6/27",22%
same,"AE diarrhoea, patients","all patients, 7/27",26%
same,SAEs related to PRI-724,observed in the 380 mg/m^2/4 h cohort (liver dysfunction: grade 3),One of the four SAEs was possibly related to the PRI-724
